# Results published in ChEMBL document CHEMBL1201862, “PubChem BioAssay data set” (2004).
# Activity calls are given as the source filed them. For most assays here, no stated cut-off is given here; in the data, actives have a measured EC50 and inactives only a lower limit.
# Columns and labels:
# [1] = target: Protein-tyrosine kinase 2-beta (Homo sapiens, UniProt Q14289);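 further: potency of inhibitors of PYK2 kinase phosphorylation of poly-GT substrate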
# [2] = M. tuberculosis H37Rv growth inhibitors, H37Rv strain (AID 1626); format: functional
# [3] = Luminescence Cell-Based Dose Response to Identify Activators of 5'UTR Stem-Loop Driven Prion Protein mRNA Translation in H4-C Neuroglioblastoma Cells. [Related pubchem assays: 1829 (Project Summary), 1814 (Primary HTS)]; format: functional
# [4] = Luminescence Cell-Based Dose Confirmation HTS to Identify Activators of 5'UTR Stem-Loop Driven Alpha-Synuclein mRNA Translation in H4 Neuroglioblastoma Cells. [Related pubchem assays: 1829 (Project Summary), 1814 (Primary HTS)]; format: functional
# [5] = Luminescence Cell-Based Dose Response HTS to Identify Activators of Luciferase Translation or Activity in H4 […] Cells. [Related pubchem assays: 1829 (Project Summary), 1814 (Primary HTS)]; format: functional
# [6] = test system: H4; experiment: Luminescence Cell-Based Dose Response HTS to Identify Activators of 5'UTR Stem-Loop Driven Prion Protein mRNA Translation in H4 Neuroglioblastoma Cells. [Related pubchem assays: 1829 (Project Summary), 1814 (Primary HTS)]; format: functional; conditions: Homo sapiens
# [7] = Luminescence Cell-Based Dose Response to Identify Activators of Luciferase Translation or Activity in H4-C Neuroglioblastoma Cells. [Related pubchem assays: 1829 (Project Summary), 1814 (Primary HTS)]; format: functional
# [8] = inhibitors of intracellular T. cruzi replication, confirmation, NIH3T3 host cells, beta-gal luminescence (AID 2044); format: functional, cell-based;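 further: intracellular parasites grown in NIH/3T3 mouse fibroblasts as host cells; luminescent beta-galactosidase reporter signal from transgenic T. cruzi replicating inside host cells; inhibitors lower the luminescence signal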
# [9] = cytotoxicity toward NIH3T3 fibroblasts, dose response, counter-screen, cell-based, ATP luminescence, mouse fibroblasts (AID 2010); format: functional;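 further: cells exposed to compound for about 90 hours before reading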
# [10] = Luminescence Cell-Based Dose Confirmation to Identify Activators of 5'UTR Stem-Loop Driven Alpha-Synuclein mRNA Translation in H4 Neuroglioblastoma Cells. [Related pubchem assays: 1829 (Project Summary), 1814 (Primary HTS)]; format: functional
# [11] = target: Genome polyprotein (dengue virus type 2, UniProt P29990); experiment: Dengue-2 NS5 methyltransferase inhibitors, primary screen, biochemical, confirmation dose response (AID 588689); format: functional
# Chain of Genome polyprotein (P29990 2492-3391 limits assumed): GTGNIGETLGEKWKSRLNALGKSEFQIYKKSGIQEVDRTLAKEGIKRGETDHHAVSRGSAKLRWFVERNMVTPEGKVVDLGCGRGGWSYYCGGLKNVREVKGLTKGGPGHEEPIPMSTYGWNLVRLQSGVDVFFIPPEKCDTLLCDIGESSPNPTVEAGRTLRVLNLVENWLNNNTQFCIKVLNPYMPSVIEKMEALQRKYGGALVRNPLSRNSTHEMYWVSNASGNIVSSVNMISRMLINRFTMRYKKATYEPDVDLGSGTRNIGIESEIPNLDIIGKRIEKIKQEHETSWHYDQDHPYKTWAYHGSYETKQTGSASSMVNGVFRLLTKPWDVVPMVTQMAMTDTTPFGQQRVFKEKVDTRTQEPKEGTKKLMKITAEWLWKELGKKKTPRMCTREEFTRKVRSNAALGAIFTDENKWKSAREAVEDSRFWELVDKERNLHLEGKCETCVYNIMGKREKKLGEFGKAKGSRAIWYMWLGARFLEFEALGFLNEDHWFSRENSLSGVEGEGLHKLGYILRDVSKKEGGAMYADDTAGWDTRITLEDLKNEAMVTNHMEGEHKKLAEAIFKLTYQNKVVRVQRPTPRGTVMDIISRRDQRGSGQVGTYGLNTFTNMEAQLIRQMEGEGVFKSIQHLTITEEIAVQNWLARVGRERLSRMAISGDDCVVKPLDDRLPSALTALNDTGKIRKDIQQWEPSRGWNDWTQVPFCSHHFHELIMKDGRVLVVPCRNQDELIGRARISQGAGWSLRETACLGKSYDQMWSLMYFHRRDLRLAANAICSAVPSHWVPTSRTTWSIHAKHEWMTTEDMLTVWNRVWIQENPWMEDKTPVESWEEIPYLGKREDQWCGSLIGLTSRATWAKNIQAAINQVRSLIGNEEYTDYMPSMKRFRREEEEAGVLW
# [12] = target: T1, Histone-lysine N-methyltransferase NSD2 (Homo sapiens, UniProt O96028); format: biochemical
# T1 sequence (O96028 whole entry): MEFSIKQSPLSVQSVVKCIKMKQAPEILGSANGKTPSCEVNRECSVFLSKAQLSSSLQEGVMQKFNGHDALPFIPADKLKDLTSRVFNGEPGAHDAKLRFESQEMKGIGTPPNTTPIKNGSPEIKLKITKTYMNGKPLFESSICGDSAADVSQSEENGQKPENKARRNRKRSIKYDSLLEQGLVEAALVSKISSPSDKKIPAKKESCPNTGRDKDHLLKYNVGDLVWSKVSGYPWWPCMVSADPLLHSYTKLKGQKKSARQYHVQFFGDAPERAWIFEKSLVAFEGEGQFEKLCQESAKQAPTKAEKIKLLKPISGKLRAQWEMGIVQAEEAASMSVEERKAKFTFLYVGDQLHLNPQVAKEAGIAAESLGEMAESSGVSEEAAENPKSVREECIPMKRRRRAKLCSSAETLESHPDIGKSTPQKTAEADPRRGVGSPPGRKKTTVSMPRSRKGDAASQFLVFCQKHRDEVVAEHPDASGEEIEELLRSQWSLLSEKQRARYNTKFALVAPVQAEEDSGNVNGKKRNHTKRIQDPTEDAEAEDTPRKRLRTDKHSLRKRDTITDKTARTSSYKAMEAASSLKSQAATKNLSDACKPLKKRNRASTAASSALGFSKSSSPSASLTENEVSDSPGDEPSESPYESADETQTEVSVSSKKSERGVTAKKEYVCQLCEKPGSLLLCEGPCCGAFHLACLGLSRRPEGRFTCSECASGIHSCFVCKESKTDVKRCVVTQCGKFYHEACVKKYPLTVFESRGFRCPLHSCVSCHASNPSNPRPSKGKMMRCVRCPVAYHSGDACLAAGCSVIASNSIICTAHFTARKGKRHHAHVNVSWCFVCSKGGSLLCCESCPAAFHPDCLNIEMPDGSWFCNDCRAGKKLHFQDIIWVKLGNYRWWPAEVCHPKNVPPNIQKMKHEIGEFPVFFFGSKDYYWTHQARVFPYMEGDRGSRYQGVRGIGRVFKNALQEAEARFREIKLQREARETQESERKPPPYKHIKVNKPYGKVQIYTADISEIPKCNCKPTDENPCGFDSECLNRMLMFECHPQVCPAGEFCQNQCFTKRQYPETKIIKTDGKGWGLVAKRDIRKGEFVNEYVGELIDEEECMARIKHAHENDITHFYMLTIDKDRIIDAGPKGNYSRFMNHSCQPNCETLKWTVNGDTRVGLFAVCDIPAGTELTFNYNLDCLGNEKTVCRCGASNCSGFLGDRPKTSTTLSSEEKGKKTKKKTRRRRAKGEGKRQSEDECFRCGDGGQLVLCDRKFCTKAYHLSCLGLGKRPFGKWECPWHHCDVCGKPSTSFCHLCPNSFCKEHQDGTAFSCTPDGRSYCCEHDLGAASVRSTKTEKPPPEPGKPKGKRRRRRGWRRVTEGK
# [13] = target: T2, Neuropeptides B/W receptor type 1 (Homo sapiens, UniProt P48145); experiment: Fluorescence-based dose response cell-based high throughput screening assay to identify antagonists of the G-protein coupled receptor 7 (GPR7). [Related pubchem assays: 1952 (Screening assay (GPR7 antagonists).), 1880 (Summary AID.)]; format: functional
# T2 sequence (P48145 whole entry): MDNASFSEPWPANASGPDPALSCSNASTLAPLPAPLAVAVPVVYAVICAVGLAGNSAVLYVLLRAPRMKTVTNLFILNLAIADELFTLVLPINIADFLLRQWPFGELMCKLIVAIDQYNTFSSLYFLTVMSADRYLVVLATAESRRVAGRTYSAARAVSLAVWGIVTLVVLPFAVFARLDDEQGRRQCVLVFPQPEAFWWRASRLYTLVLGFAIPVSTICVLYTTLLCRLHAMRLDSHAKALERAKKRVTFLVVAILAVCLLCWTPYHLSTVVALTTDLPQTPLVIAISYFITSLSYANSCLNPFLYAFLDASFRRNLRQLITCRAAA
# [14] = target: Melanin-concentrating hormone receptor 1 (Homo sapiens, UniProt Q99705); experiment: Fluorescence-based counterscreen for antagonists of the G-protein coupled receptor 7 (GPR7): cell-based high throughput dose response assay to identify antagonists of the melanin-concentrating hormone receptor 1 (MCHR1).; format: functional
# Chain of Melanin-concentrating hormone receptor 1 (Q99705 whole entry): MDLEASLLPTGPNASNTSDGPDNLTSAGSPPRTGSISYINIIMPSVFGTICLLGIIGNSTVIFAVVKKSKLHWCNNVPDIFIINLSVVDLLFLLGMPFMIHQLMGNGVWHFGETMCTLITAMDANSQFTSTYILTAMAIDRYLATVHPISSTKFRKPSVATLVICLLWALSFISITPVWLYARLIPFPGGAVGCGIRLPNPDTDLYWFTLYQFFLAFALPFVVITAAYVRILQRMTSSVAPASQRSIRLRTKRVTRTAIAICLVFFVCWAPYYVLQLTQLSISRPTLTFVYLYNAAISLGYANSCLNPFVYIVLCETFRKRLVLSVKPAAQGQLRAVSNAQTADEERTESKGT
# [15] = Luminescence Cell-Based Dose Confirmation HTS to Identify Inhibitors of Polyadenylation.; format: functional
# [16] = target: Ephrin type-A receptor 4 (Mus musculus, UniProt Q03137); experiment: inhibitors of EphA4 binding to KYL peptide, primary screen, biochemical, colorimetric, mouse EphA4 (AID 689); format: functional
# Chain of Ephrin type-A receptor 4 (Q03137 whole entry): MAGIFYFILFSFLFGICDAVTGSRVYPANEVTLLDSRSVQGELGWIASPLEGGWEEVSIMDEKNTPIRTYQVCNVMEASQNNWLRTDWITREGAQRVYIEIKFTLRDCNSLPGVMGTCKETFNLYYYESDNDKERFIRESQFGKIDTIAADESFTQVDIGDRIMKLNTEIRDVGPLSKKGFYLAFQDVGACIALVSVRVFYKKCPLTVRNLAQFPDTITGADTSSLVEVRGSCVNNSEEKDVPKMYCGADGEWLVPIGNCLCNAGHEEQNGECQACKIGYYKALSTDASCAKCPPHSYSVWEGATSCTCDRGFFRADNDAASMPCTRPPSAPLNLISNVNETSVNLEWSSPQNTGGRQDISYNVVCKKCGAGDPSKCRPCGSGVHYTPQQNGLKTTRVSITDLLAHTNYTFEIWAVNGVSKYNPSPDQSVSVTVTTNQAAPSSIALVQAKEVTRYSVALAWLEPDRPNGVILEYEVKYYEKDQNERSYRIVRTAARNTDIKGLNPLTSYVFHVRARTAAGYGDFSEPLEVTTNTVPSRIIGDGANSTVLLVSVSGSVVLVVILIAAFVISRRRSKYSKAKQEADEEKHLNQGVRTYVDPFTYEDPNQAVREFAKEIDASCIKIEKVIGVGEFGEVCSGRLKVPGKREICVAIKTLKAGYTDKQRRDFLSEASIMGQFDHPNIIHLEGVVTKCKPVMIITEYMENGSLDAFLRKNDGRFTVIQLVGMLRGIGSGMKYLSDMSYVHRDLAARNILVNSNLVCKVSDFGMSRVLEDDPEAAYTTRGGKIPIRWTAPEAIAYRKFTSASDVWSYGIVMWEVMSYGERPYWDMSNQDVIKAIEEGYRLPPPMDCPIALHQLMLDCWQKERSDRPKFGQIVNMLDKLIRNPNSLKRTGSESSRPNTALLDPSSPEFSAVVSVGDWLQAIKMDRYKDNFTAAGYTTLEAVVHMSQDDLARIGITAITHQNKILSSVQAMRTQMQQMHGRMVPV
# [17] = target: Large T antigen (Simian virus 40, UniProt P03070); format: functional, Betapolyomavirus macacae;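 further: Confirmatory-stage PubChem screen for compounds that inhibit SV40 T antigen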
# Chain of Large T antigen (P03070 whole entry): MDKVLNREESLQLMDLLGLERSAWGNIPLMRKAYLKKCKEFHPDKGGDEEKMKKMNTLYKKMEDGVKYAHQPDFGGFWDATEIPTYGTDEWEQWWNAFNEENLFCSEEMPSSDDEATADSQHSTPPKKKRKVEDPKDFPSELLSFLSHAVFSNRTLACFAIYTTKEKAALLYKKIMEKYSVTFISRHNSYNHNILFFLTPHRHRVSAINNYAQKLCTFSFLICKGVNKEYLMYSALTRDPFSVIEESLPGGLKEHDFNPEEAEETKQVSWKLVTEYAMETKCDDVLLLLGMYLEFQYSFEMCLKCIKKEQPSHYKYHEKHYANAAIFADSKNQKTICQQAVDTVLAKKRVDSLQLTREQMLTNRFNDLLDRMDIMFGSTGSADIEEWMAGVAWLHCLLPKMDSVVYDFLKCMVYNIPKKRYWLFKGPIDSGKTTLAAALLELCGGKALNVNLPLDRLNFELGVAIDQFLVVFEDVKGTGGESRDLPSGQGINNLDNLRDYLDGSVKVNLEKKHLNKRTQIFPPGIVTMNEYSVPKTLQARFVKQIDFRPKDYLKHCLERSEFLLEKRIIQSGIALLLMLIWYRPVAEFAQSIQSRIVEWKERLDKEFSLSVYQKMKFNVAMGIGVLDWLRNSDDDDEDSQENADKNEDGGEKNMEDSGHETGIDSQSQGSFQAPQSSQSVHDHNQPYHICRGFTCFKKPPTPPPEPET
# [18] = target: T3, Estrogen receptor beta (Homo sapiens, UniProt Q92731);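 further: recombinant ER-beta bound to coactivator SRC1 peptide in presence of estradiol agonist; inhibitors block coactivator peptide binding and lower the FRET signal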
# T3 sequence (Q92731 whole entry): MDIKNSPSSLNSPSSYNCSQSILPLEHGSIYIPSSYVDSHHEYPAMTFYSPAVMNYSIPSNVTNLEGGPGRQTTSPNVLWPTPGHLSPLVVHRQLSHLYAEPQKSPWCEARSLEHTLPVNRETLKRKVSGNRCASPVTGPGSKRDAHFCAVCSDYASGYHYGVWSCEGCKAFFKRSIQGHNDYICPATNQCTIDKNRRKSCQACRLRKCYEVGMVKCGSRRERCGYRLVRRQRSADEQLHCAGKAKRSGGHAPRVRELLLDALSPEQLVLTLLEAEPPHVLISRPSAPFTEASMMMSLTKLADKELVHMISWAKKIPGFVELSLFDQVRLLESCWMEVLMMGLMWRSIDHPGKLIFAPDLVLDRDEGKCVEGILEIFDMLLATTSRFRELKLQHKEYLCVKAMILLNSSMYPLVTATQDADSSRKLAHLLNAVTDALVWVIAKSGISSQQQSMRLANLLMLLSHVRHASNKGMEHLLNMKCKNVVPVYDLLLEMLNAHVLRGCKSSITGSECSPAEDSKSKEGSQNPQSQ
# [19] = target: T3, Estrogen receptor beta; experiment: ERβ–SRC-3 coactivator interaction inhibitors, confirmation, orthogonal assay, biochemical, ELISA, streptavidin-HRP readout (AID 1060)
# [20] = target: T4, Sentrin-specific protease 8 (Homo sapiens, UniProt Q96LD8); format: functional
# T4 sequence (Q96LD8 whole entry): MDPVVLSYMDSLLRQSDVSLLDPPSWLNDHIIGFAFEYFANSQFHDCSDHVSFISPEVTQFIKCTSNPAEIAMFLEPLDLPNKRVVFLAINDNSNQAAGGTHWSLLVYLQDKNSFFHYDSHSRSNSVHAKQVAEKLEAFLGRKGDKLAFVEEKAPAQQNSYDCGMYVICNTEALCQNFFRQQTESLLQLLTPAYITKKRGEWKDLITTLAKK
# [21] = target: T4, Sentrin-specific protease 8; format: functional; remark: listed apart in the source
# [22] = target: T5, Rac GTPase-activating protein 1 (Homo sapiens, UniProt Q9H0H5); experiment: MgcRacGAP GTPase-activating activity inhibitors, confirmation, biochemical, ADP Hunter fluorescence, primary and confirmatory (AID 624330); format: functional
# T5 sequence (Q9H0H5 whole entry): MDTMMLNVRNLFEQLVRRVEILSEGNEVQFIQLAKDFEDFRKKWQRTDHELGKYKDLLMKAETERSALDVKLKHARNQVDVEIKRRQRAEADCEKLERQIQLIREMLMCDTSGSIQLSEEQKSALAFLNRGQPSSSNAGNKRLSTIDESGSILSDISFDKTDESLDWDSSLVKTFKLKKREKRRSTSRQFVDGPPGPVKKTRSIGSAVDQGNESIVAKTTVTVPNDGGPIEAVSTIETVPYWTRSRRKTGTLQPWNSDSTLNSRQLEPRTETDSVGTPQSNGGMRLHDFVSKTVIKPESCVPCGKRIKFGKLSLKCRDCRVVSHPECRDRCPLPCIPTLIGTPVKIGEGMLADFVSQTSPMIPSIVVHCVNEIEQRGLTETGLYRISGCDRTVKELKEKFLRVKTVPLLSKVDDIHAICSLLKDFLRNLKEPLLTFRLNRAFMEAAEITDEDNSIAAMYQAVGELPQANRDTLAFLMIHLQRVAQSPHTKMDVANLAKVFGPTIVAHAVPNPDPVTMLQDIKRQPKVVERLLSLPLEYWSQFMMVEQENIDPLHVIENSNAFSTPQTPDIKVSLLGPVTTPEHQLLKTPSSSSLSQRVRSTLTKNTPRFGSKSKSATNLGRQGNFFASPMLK
# [23] = test system: Streptococcus sp. 'group A'; experiment: growth inhibition of control SK(-) GAS strain, dose response, counter-screen for streptokinase expression inhibitor project, luminescence, kanamycin, BacTiterGlo, confirmation (AID 1900); format: functional, organism-based
# [24] = target: T6, Streptokinase A (Streptococcus pyogenes serotype M1, UniProt P10520); experiment: S. pyogenes streptokinase expression inhibitors, potency, dose response, plasminogen activation absorbance, OD405 (AID 1914); format: functional, Streptococcus pyogenes M1 GAS;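 further: secreted streptokinase activity via plasminogen activation per viability signal from cell pellet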
# T6 sequence (P10520 whole entry): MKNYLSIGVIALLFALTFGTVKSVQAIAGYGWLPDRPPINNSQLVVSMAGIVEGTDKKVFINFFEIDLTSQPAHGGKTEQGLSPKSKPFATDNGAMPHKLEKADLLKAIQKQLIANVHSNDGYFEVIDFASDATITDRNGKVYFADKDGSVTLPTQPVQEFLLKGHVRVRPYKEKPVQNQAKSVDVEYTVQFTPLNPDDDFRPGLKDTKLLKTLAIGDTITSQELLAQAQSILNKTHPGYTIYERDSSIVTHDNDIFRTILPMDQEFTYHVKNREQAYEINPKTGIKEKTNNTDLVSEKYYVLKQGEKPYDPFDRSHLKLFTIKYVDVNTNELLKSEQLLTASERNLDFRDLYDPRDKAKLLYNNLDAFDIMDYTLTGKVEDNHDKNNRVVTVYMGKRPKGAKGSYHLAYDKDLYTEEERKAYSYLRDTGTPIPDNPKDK
# [25] = test system: Streptococcus; experiment: Group A Streptococcus viability loss, dose response, counter-screen for streptokinase expression inhibitor project, luminescence, BacTiterGlo (AID 1915); format: functional, organism-based;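 further: potency for reduction of bacterial viability or growth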
# [26] = test system: BJ; experiment: cytotoxicity toward BJ-TERT fibroblasts, dose response, cell-based, RAS-independent, luminescence (AID 1933); format: functional; conditions: Homo sapiens
# [27] = test system: BJ; experiment: cells; format: functional, cell-based; conditions: Homo sapiens
# [28] = test system: BJ; experiment: cytotoxicity toward BJ-TERT-LT-ST fibroblasts, dose response, cell-based, RAS-independent, luminescence (AID 1935); format: functional; conditions: Homo sapiens;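 further: BJ fibroblasts immortalized with TERT plus LT and ST oncogenes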
# [29] = cytotoxicity toward DRD oncogenic fibroblasts, dose response, cell-based, non-viral oncogenic, luminescence (AID 1934); format: functional; conditions: Homo sapiens
# Chain of Protein-tyrosine kinase 2-beta (Q14289 whole entry): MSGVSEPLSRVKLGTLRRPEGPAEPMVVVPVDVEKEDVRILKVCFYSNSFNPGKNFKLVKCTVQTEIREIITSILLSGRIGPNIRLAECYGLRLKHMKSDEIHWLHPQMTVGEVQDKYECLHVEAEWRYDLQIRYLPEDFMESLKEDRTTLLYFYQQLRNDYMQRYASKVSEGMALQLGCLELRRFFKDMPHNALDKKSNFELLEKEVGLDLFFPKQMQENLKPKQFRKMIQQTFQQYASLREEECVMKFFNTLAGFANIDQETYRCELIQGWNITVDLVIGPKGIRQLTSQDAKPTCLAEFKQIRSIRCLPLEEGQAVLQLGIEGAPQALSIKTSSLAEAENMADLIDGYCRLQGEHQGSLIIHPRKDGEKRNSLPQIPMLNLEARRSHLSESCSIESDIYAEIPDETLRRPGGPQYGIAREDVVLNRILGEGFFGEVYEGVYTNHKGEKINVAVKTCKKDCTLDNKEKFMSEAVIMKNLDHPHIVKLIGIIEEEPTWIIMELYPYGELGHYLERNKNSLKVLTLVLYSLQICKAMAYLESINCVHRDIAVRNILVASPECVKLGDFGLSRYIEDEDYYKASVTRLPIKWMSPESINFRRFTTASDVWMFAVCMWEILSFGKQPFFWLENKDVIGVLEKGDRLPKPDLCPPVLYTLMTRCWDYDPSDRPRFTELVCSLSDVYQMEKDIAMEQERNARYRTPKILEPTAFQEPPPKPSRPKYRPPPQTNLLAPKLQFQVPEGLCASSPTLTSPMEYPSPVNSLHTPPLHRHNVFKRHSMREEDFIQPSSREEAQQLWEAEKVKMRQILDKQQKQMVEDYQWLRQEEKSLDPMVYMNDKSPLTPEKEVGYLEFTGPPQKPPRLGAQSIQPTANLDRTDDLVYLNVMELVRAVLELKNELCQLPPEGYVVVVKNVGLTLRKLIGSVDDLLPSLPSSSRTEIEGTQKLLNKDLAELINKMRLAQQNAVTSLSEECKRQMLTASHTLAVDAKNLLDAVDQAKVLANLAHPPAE
smiles,measurement,setting,value
O=C1Nc2ccc(NS(=O)(=O)c3cccs3)c3cccc1c23,IC50,[1],5.32 µM (active)
O=C(COC(=O)Cc1ccccc1F)Nc1ccc2c(c1)OCO2,IC50,[2],> 100 µM (active)
O=C(O)c1cccc(NC2=C(Cl)C(=O)c3ccccc3C2=O)c1,EC50,[3],> 12 µM (not active)
same,EC50,[4],1.44 µM (active)
same,EC50,[5],< 0.1 µM (active)
same,EC50,[6],6.76 µM (active)
same,EC50,[7],0.149 µM (active)
same,EC50,[8],> 30 µM (not active)
same,EC50,[9],5.21 µM (active)
same,EC50,[10],> 12 µM (not active)
same,IC50,[11],15.6 µM (active)
same,AC50,[12],5.2 µM (active)
COc1ccc(C(CNC(=O)COc2ccc(Cl)c(C)c2)N2CCCCC2)cc1 (stereo unspecified),IC50,[13],> 4.87 µM (active)
same,IC50,[14],11.3 µM (not active)
COc1cc(C(=O)Nc2c(C)cc(C)cc2C)c(Br)c(OC)c1OC,EC50,[15],> 120 µM (not active)
Cc1nc2ccc(NC(=O)C(F)(F)F)cc2o1,IC50,[2],> 100 µM (active)
CCn1c(COc2ccccc2C)nnc1SCC(=O)Nc1cc(C)on1,IC50,[16],> 100 µM (not active)
CCOc1ccc([N+](=O)[O-])cc1CNC1CCCCCCC1,IC50,[13],27.3 µM (not active)
same,IC50,[14],12.6 µM (not active)
O=C(Nc1ccc(O)cc1)C1CC=CCC1 (stereo unspecified),IC50,[17],16.4 µM (active)
same,IC50,[18],3.2 µM (active)
same,IC50,[19],0.124 µM (not active)
same,IC50,[20],25.1 µM (active)
same,IC50,[21],19.1 µM (active)
same,IC50,[22],40.7 µM (active)
COc1ccc(OCCn2c(NC(=O)c3ccco3)nc3ccccc32)cc1,EC50,[23],5.47 µM (active)
same,EC50,[24],> 150 µM (not active)
same,IC50,[2],> 100 µM (active)
same,EC50,[25],> 150 µM (not active)
COc1ccc(C2CC2/C(=N/O)c2ccccn2)cc1 (stereo unspecified),IC50,[13],> 43.8 µM (not active)
same,IC50,[14],> 43.8 µM (not active)
N#CC1=C(SCC(=O)c2ccccc2)N=C2CCCC(O)=C2C1c1ccco1 (stereo unspecified),EC50,[3],1.22 µM (active)
same,EC50,[4],> 120 µM (not active)
same,EC50,[5],< 0.1 µM (active)
same,EC50,[26],2.85 µM (active)
same,EC50,[6],> 120 µM (not active)
same,EC50,[27],42.1 µM (inconclusive)
same,EC50,[7],0.395 µM (active)
same,EC50,[10],0.464 µM (active)
same,EC50,[28],18.9 µM (active)
same,EC50,[29],19.3 µM (inconclusive)
